Measurements as given in ChEMBL document CHEMBL1136240, “Synthesis and anthelmintic activity of cyclohexadepsipeptides with (S,S,S,R,S,R)-configuration” (Bioorg Med Chem Lett, 2003).

How the values were obtained:
Ovis aries [1] = assay: In vivo antihelminthic activity against Haemonchus contortus in sheep at a dose of 0.250 mg kg-1; type: functional; details: dose 0.25 mg kg-1
[2] = LogP (Octanol-water partition coefficient) was measured at pH 2.3; type: physicochemical
Ovis aries [3] = assay: In vivo antihelminthic activity against Haemonchus contortus in sheep at a dose of 0.50 mg kg-1; type: functional; details: dose 0.5 mg kg-1
Ovis aries [4] = assay: In vivo antihelminthic activity against Haemonchus contortus in sheep at a dose of 0.05 mg kg-1; type: functional
Ovis aries [5] = assay: In vivo antihelminthic activity against Haemonchus contortus in sheep at a dose of 0.10 mg kg-1; type: functional; details: dose 0.1 mg kg-1

| logD [2] | SMILES | Egg reduction (Ovis aries [1]) | Egg reduction (Ovis aries [3]) | Egg reduction (Ovis aries [4]) | Egg reduction (Ovis aries [5]) |
| --- | --- | --- | --- | --- | --- |
| 4 | CCC(C)[C@H]1C(=O)O[C@H](C)C(=O)N(C)[C@@H](C(C)CC)C(=O)O[C@H](C)C(=O)N(C)[C@@H](C(C)CC)C(=O)OCC(=O)N1C (stereo partly specified) | >=95% |  |  |  |
|  | CCC(C)[C@H]1C(=O)O[C@H](C(C)C)C(=O)N(C)[C@@H](C(C)CC)C(=O)O[C@H](C(C)C)C(=O)N(C)[C@@H](C(C)CC)C(=O)O[C@H](C(C)C)C(=O)N1C (stereo partly specified) |  | >=95% |  |  |
| 3.26 | CCC(C)[C@H]1C(=O)O[C@H](C)C(=O)N(C)[C@@H](C)C(=O)O[C@H](C)C(=O)N(C)[C@@H](C(C)CC)C(=O)O[C@H](C)C(=O)N1C (stereo partly specified) |  |  | >=95% |  |
| 4.2 | CCC(C)[C@H]1C(=O)O[C@H](C)C(=O)N(C)[C@@H](C(C)CC)C(=O)O[C@H](C)C(=O)N(C)[C@@H](C(C)CC)C(=O)O[C@H](C)C(=O)N1C (stereo partly specified) |  | >=95% |  |  |
| 5.14 | CCCC[C@H]1OC(=O)[C@H](C(C)CC)N(C)C(=O)[C@@H](C)OC(=O)[C@H](C(C)CC)N(C)C(=O)[C@@H](C)OC(=O)[C@H](C(C)CC)N(C)C1=O (stereo partly specified) |  |  |  | >=95% |
| 3.1 | CC[C@H](C)[C@H]1C(=O)O[C@H](C)C(=O)N(C)[C@@H]([C@@H](C)CC)C(=O)O[C@H](C)C(=O)N(C)[C@@H](C)C(=O)OC(C)C(=O)N1C (single isomer, unassigned) |  |  |  | >=95% |
